One block for each compound: values may come before it.
Tests used:
MV4-11 = assay: Antiproliferative activity against human MV4-11 cells assessed as inhibition of cell growth incubated for 72 hrs by CCK-8 assay; type: functional, cell-based; settings: MV4-11, 72 h
[1] = target: Cyclin-dependent kinase 9 (Homo sapiens, UniProt P50750)
Description: Inhibition of CDK9 (unknown origin) using ULight 4EBP1 peptide as substrate incubated for 2 hrs by FRET assay

[2] = target: Tyrosine-protein kinase HCK (Homo sapiens, UniProt P08631); assay: Inhibition of human HCK incubated for 1 hr by HTRF assay
Ephrin type-A receptor 1 = target: T1, Ephrin type-A receptor 1 (Homo sapiens, UniProt P21709); assay: Inhibition of human EPHA1 incubated for 1 hr by HTRF assay
T1 sequence (P21709 whole entry): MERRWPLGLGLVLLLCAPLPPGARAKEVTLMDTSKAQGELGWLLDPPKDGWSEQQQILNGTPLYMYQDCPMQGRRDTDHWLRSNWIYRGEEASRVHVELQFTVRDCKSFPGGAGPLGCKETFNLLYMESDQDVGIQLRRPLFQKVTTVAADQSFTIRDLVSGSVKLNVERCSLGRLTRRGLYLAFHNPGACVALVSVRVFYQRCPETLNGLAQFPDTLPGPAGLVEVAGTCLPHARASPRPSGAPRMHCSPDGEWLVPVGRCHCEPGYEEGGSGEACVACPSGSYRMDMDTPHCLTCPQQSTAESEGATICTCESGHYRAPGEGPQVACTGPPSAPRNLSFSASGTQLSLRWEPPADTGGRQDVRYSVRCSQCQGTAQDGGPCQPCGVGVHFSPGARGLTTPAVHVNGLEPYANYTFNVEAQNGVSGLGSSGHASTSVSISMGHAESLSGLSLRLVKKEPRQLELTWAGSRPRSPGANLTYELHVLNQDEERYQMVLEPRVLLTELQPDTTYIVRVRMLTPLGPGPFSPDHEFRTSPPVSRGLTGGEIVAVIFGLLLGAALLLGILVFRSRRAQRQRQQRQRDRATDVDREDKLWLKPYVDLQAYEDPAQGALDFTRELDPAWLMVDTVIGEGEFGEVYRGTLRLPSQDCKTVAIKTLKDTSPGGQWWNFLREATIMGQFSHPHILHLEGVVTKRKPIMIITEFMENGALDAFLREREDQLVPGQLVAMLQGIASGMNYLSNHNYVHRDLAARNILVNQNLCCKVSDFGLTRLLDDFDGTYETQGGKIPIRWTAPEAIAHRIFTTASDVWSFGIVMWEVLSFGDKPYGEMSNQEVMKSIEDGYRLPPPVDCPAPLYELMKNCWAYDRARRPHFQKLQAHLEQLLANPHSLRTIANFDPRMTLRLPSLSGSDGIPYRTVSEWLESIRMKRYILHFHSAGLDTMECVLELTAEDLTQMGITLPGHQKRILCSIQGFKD

[3] = target: Cyclin-dependent kinase 6 (Homo sapiens, UniProt Q00534); assay: Inhibition of CDK6 (unknown origin) using ULight 4EBP1 peptide as substrate incubated for 2 hrs by FRET assay
[4] = target: Cyclin-dependent kinase 1 (Homo sapiens, UniProt P06493); assay: Inhibition of CDK1 (unknown origin) using ULight 4EBP1 peptide as substrate incubated for 2 hrs by FRET assay
[5] = target: Cyclin-dependent kinase 3 (Homo sapiens, UniProt Q00526); assay: Inhibition of CDK3 (unknown origin) using ULight 4EBP1 peptide as substrate incubated for 2 hrs by FRET assay
Aurora kinase A = target: T2, Aurora kinase A (Homo sapiens, UniProt O14965); assay: Inhibition of Aurora A (unknown origin)
T2 sequence (O14965 whole entry): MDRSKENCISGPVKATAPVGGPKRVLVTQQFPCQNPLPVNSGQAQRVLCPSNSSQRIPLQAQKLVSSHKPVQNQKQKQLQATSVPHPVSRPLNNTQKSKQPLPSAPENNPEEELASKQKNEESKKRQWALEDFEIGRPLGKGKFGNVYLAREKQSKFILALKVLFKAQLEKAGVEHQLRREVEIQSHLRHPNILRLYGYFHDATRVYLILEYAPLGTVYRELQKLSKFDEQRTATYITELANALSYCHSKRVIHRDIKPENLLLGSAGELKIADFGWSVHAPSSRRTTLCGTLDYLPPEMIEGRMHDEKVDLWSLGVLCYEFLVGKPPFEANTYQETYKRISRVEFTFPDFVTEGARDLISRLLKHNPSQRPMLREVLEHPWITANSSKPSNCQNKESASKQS

[6] = target: Hepatocyte growth factor receptor (Homo sapiens, UniProt P08581); assay: Inhibition of human MET incubated for 1 hr by HTRF assay
[7] = target: T3, Tyrosine-protein kinase Tec (Homo sapiens, UniProt P42680); assay: Inhibition of human TEC incubated for 1 hr by HTRF assay
T3 sequence (P42680 whole entry): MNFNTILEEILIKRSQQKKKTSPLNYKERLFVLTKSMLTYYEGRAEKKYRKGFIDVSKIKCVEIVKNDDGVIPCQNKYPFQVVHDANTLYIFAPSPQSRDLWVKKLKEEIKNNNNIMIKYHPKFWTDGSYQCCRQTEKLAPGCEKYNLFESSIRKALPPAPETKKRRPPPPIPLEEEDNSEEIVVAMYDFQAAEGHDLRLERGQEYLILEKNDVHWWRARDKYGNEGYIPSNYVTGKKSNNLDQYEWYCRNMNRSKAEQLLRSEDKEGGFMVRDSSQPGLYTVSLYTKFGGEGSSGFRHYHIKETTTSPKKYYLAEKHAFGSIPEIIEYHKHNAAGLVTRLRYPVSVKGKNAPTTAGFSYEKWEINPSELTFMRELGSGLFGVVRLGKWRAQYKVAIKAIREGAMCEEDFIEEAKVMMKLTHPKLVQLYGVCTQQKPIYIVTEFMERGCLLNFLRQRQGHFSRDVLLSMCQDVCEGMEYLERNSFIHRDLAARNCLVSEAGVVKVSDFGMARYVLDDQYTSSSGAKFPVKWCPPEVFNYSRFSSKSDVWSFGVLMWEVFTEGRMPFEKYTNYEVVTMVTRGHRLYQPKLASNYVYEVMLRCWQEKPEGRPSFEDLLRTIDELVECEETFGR

[8] = target: Tyrosine-protein kinase Blk (Homo sapiens, UniProt P51451); assay: Inhibition of human BLK incubated for 1 hr by HTRF assay
[9] = target: Tyrosine-protein kinase Lyn (Homo sapiens, UniProt P07948); assay: Inhibition of human LYN incubated for 1 hr by HTRF assay
[10] = target: T4, Cytoplasmic tyrosine-protein kinase BMX (Homo sapiens, UniProt P51813); assay: Inhibition of human BMX incubated for 1 hr by HTRF assay
T4 sequence (P51813 whole entry): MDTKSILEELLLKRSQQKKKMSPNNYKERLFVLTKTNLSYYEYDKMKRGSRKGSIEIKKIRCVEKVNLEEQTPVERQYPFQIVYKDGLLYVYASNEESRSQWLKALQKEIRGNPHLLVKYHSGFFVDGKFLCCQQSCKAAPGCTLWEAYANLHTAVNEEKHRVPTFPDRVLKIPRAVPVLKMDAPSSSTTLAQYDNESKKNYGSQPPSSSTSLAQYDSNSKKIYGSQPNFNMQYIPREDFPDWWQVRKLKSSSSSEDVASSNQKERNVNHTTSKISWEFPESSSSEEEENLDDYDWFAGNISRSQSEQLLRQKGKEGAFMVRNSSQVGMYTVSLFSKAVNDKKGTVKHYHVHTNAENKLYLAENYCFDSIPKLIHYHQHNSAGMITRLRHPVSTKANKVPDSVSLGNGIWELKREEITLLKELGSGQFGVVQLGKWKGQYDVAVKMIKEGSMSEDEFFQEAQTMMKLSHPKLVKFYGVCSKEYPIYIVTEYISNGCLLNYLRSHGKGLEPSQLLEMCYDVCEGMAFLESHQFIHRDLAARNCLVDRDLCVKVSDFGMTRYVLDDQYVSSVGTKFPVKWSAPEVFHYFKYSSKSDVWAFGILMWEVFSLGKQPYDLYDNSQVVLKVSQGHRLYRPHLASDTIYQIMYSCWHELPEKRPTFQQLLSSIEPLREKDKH

[11] = target: Cyclin-dependent kinase 2 (Homo sapiens, UniProt P24941); assay: Inhibition of CDK2 (unknown origin) using ULight 4EBP1 peptide as substrate incubated for 2 hrs by FRET assay
[12] = target: Cyclin-dependent kinase 4 (Homo sapiens, UniProt P11802); assay: Inhibition of CDK4 (unknown origin) using ULight 4EBP1 peptide as substrate incubated for 2 hrs by FRET assay
[13] = target: Epidermal growth factor receptor (Homo sapiens, UniProt P00533); assay: Inhibition of human EGFR incubated for 1 hr by HTRF assay
[14] = target: Cyclin-dependent kinase 5 (Homo sapiens, UniProt Q00535); assay: Inhibition of CDK5 (unknown origin) using ULight 4EBP1 peptide as substrate incubated for 2 hrs by FRET assay
[15] = target: Insulin-like growth factor 1 receptor (Homo sapiens, UniProt P08069); assay: Inhibition of human IGF1R incubated for 1 hr by HTRF assay
[16] = target: Tyrosine-protein kinase BTK (Homo sapiens, UniProt Q06187); assay: Inhibition of human recombinant BTK incubated for 1 hr by HTRF assay
[17] = target: Cyclin-dependent kinase 7 (Homo sapiens, UniProt P50613); assay: Inhibition of CDK7 (unknown origin) using ULight 4EBP1 peptide as substrate incubated for 2 hrs by FRET assay

IC50 (MV4-11): 30.7 nM
SMILES: CN(C)C/C=C/C(=O)Nc1ccc(C(=O)Nc2cccc(Nc3ncc(Cl)c(-c4c[nH]c5ccccc45)n3)c2)cc1

IC50 [1]: 3.57 nM
SMILES: COC[C@@H](C)N[C@H]1CC[C@H](Nc2cc(-c3cccc(NCC4(C#N)CCOCC4)n3)c(Cl)cn2)CC1

IC50 [2]: > 10000 nM
IC50 (Ephrin type-A receptor 1): 2480 nM
IC50 [3]: 1350 nM
IC50 [4]: > 10000 nM
IC50 [5]: 370 nM
IC50 (Aurora kinase A): 1320 nM
IC50 [6]: > 10000 nM
IC50 [7]: > 10000 nM
IC50 [8]: > 10000 nM
IC50 [9]: > 10000 nM
IC50 [10]: > 10000 nM
IC50 [11]: 735 nM
IC50 [12]: 645 nM
IC50 [13]: > 10000 nM
IC50 [14]: 3680 nM
IC50 [15]: 2890 nM
IC50 [16]: > 10000 nM
SMILES: CC(=O)N[C@H]1CC[C@H](c2ncc(Cl)c(Nc3ccccc3S(=O)(=O)C(C)C)n2)CC1

SMILES: Cn1ncc(-c2nc(N[C@H]3CC[C@H](N)CC3)ncc2Cl)c1CC1CC1 [BTX-A51]
IC50 [1]: 18.6 nM
IC50 (MV4-11): 158 nM
IC50 [17]: 272 nM
